Reference: US20190046545A1, “COMPOSITIONS WITH SPECIFIC OLIGOSACCHARIDES TO PREVENT LATER IN LIFE OBESITY OR RELATED COMORBIDITIES, BY INCREASING COLONIC SCFA PRODUCTION AND/OR BY INCREASING GLP-1 SECRETION” (NESTEC S.A., priority 2016, published 2019)

System: BALB/cByJ CRL mice
Test: SCFA production in caecum content of mice fed low-fiber diets enriched with 5% of tested fibers, measured by Gas-Liquid Chromatography
Format: in vivo
Settings: 5 wt % fiber, versus low-fiber diet only
Description: 5 week old females BALB/cByJ CRL mice from Charles River were split into several groups and fed during 6 weeks based on the following protocol: • Week 1: low-fiber diet (composition is detailed in table 2) for all groups • Weeks 2 to 6: • Control group (group A): low-fiber diet (same as for week 1) • Test groups (groups B-D): low-fiber diet (same as for week 1) supplemented with 5 wt % of a tested fiber (5% of the total low fiber diet was replaced by 5% of a tested fiber)
The following fibers were tested: • BMOs=bovine milk oligosaccharides: an oligosaccharide mixture comprising 99.3% of GOS, 0.2% of N-acetylated oligosaccharide and 0.5% sialylated oligosaccharide was tested • PDX=polydextrose • Pectin
After 6 weeks, the animals of each group were sacrificed and the content from caecum was collected. The SOFA production were measured by Gas-Liquid Chromatography (GLC; amounts of SOFA in nmol/mg dry weight). The following SOFA were measured: propionate, butyrate, valerate and acetate.
The measure was made based on the following protocol: SOFA in an acid solution (pH 2.0 to 3.0) were separated on a GLC column coated with a polar stationary phase. […] After centrifugation, the sterile-filtered supernatant was ready for analysis by GLC. SOFA were measured simultaneously.
Median ratio values were calculated in order to compare the different fiber-enriched diets on SOFA production.

Row | Substance | Caecal SCFA production (acetate, propionate, butyrate, valerate) compared with low-fiber diet
1 | Pectin | less SOFA release of all kinds
2 | polydextrose [PDX] | less SOFA release of all kinds
